From publication PMC10819888, “Benzimidazole-Based Derivatives as Apoptotic Antiproliferative Agents: Design, Synthesis, Docking, and Mechanistic Studies” (Molecules, 2024)

Tests used:
Format in all cases: cell-based, human
CCRF-CEM = experiment: NCI-60 five-dose assay; settings: CCRF-CEM, Leukemia
HL-60(TB) = experiment: NCI-60 five-dose assay; settings: HL-60(TB), Leukemia
SNB-75 = experiment: NCI-60 five-dose assay; settings: SNB-75, CNS Cancer
HS 578T = experiment: NCI-60 five-dose assay; settings: HS 578T, Breast Cancer
HCC-2998 = experiment: NCI-60 five-dose assay; settings: HCC-2998, Colon Cancer
A549/ATCC = experiment: NCI-60 five-dose assay; settings: A549/ATCC, Non-Small Cell Lung Cancer
SR = experiment: NCI-60 five-dose assay; settings: SR, Leukemia
KM12 = experiment: NCI-60 five-dose assay; settings: KM12, Colon Cancer
OVCAR-4 = experiment: NCI-60 five-dose assay; settings: OVCAR-4, Ovarian Cancer
DU-145 = experiment: NCI-60 five-dose assay; settings: DU-145, Prostate Cancer
HCT-116 = experiment: NCI-60 five-dose assay; settings: HCT-116, Colon Cancer
SK-MEL-5 = experiment: NCI-60 five-dose assay; settings: SK-MEL-5, Melanoma
RPMI-8226 = experiment: NCI-60 five-dose assay; settings: RPMI-8226, Leukemia
SF-295 = experiment: NCI-60 five-dose assay; settings: SF-295, CNS Cancer
T-47D = experiment: NCI-60 five-dose assay; settings: T-47D, Breast Cancer
SNB-19 = experiment: NCI-60 five-dose assay; settings: SNB-19, CNS Cancer
Leukemia subpanel = experiment: NCI-60 five-dose assay, subpanel; settings: Leukemia
UACC-257 = experiment: NCI-60 five-dose assay; settings: UACC-257, Melanoma
SN12C = experiment: NCI-60 five-dose assay; settings: SN12C, Renal Cancer
Prostate Cancer subpanel = experiment: NCI-60 five-dose assay, subpanel; settings: Prostate Cancer
[1] = Homo sapiens, read-out: GI50 Conc. per Cell Line
[2] = Homo sapiens, read-out: LC50 (the source's name)
[3] = Homo sapiens, average sensitivity of all subpanel cell lines, read-out: GI50 Subpanel MID b

COc1ccc(C=NNC(=O)c2ccc3[nH]c(-c4ccc(Cl)cc4)nc3c2)cc1 [Compound 4g, N′-(4-Methoxybenzylidene)-2-(4-chlorophenyl)-1H-benzimidazole-5-carbohydrazide]
TGI (CCRF-CEM): >100 µM
GI50 (CCRF-CEM; [1]): 4.9 µM
CC50 (CCRF-CEM; [2]): > 100 µM
TGI (HL-60(TB)): >100 µM
GI50 (HL-60(TB); [1]): 1300 nM
CC50 (HL-60(TB); [2]): > 100 µM
GI50 (SNB-75; [1]): 1530 nM
CC50 (SNB-75; [2]): 25.7 µM
TGI (SNB-75): 4.57 µM
TGI (HS 578T): 5.64 µM
GI50 (HS 578T; [1]): 2300 nM
CC50 (HS 578T; [2]): > 100 µM
TGI (HCC-2998): 6.44 µM
GI50 (HCC-2998; [1]): 2570 nM
CC50 (HCC-2998; [2]): 37.8 µM
TGI (A549/ATCC): 5.65 µM
GI50 (A549/ATCC; [1]): 2460 nM
CC50 (A549/ATCC; [2]): 48.1 µM
GI50 (SR; [1]): 2870 nM
CC50 (SR; [2]): > 100 µM
TGI (SR): 15.40 µM
GI50 (KM12; [1]): 3.03 µM
CC50 (KM12; [2]): > 100 µM
TGI (KM12): 9.58 µM
GI50 (OVCAR-4; [1]): 1790 nM
CC50 (OVCAR-4; [2]): 6.33 µM
TGI (OVCAR-4): 3.36 µM
TGI (DU-145): 4.61 µM
GI50 (DU-145; [1]): 1980 nM
CC50 (DU-145; [2]): 14 µM
TGI (HCT-116): 5.12 µM
GI50 (HCT-116; [1]): 2140 nM
CC50 (HCT-116; [2]): 18.9 µM
GI50 (SK-MEL-5; [1]): 1890 nM
CC50 (SK-MEL-5; [2]): 7.95 µM
TGI (SK-MEL-5): 3.88 µM
GI50 (RPMI-8226; [1]): 997 nM
CC50 (RPMI-8226; [2]): > 100 µM
TGI (RPMI-8226): 4.77 µM
GI50 (SF-295; [1]): 2230 nM
CC50 (SF-295; [2]): 15 µM
TGI (SF-295): 5.05 µM
GI50 (T-47D; Homo sapiens, T47D, read-out: GI50 Conc. per Cell Line): 1940 nM
CC50 (T-47D; Homo sapiens, T47D, read-out: LC50 (the source's name)): 30 µM
TGI (T-47D): 4.83 µM
GI50 (SNB-19; [1]): 3.13 µM
CC50 (SNB-19; [2]): 49.6 µM
TGI (SNB-19): 7.95 µM
GI50 (Leukemia subpanel; [3]): 2880 nM
GI50 Selectivity Ratio (MID a/MID b) (Leukemia subpanel): 0.87
GI50 (UACC-257; [1]): 3.27 µM
CC50 (UACC-257; [2]): 60 µM
TGI (UACC-257): 10.10 µM
GI50 (SN12C; [1]): 2460 nM
CC50 (SN12C; [2]): 33.9 µM
TGI (SN12C): 6.79 µM
GI50 (Prostate Cancer subpanel; [3]): 1810 nM
GI50 Selectivity Ratio (MID a/MID b) (Prostate Cancer subpanel): 1.39
